Paper PMC7719179, “Small molecule inhibition of Dynamin-dependent endocytosis targets multiple niche signals and impairs leukemia stem cells” (Nature Communications, 2020)
Values joined by “and” are separate entries in the source; they are usually repeats but may differ in a detail not shown here. Equal entries are not always repeated.

Tests used:
[1] = system: HES1 in patient-derived ETP-ALL and T-ALL cells; assay: NOTCH1-induced HES1 in human ETP-ALL and T-ALL xenograft cells; assay type: cell-based; conditions: for HES1 relative expression, FOLD: fold over unstimulated
Experimental: Splenocytes from secondary xenografts were processed as previously described. […] Flow cytometric analysis of surface IL-7R levels and intracellular levels of pSTAT5 were performed as described in the FACS analysis section. For activation of NOTCH1-mediated signalling, 5 × 10^5 rested leukemia cells were seeded on OP9-DL1 stromal cells. Co-culture on OP9 stromal cells was used as a negative control. After 16 h of co-culture, leukemia cells were washed twice using cold PBS 1×. Flow cytometric analysis of NOTCH1 expression and intracellular levels of HES1 were performed as described in the FACS analysis section.

[2] = system: Notch1 and Hes1 in Lmo2-transgenic DN3a thymocytes; assay: Surface Notch1 and intracellular Hes1 in Lmo2^Tg DN3a thymocytes on OP9-DL1; assay type: cell-based, mouse; conditions: Lmo2-transgenic DN3a thymocytes on OP9-DL1 overnight, 0.2 μM Dynole 34-2
Experimental: Phosphoflow analysis was performed as previously described. Briefly, 2 × 10^6 cells stained for surface markers were subsequently resuspended into PBS 1× + 4% v/v paraformaldehyde and incubated for 10 min at 4 °C for fixation. Fixed cells were washed twice using PBS 1×, then resuspended in pre-chilled at −20 °C Perm Buffer III (BD Pharmingen) and incubated 30 min at 4 °C for permeabilization. Cells were washed twice using PBS 1× and incubated overnight at 4 °C in PBS 1× + 2% v/v fetal calf serum (FCS) with Cell Signalling purified antibodies (Genesearch Pty Ltd, Arundel QLD, Australia) against pSTAT5 (Tyr694; #9359), phospho-p38 MAPK (Thr180/Tyr182; #4511), phospho-p44/42 (Erk1/2; #9102), phospho-S6 (Ser235/236; #4856) and phospho-Akt (Ser473; #9271) or isotype control. […] Fluorescence-activated cell sorting (FACS) analysis was performed using LSRII and LSR Fortessa cytometers, following the gating strategies described in Supplementary Fig. 11. […]
For in vitro NOTCH1 signalling activation assays, cells were seeded on OP9 and OP9-DL1 stromal cell lines as described in the co-culture assays section and incubated overnight with either Dynole 34-2 or Ruxolitinib or DAPT resuspended in DMSO. […] Cells were washed twice, fixed and analysed for intracellular HES1 detection by flow cytometry as described in the FACS analysis section. […]

[3] = system: AML01-307 and AML18 patient-derived xenografts; assay: Xenograft models of human AML (AML01-307, AML18): leukemic burden in blood, bone marrow, spleen; spleen weight; assay type: in vivo
Experimental: Patient-derived xenograft models were established as previously described[97],[98]. All experiments were pre-approved by the Human Research Ethics Committee of the University of New South Wales (UNSW), the UNSW Animal Care and Ethics Committee, the Alfred Health Human Ethics Committee and the AMREP Animal Ethics Committee. For transplantation assays, 10^6 splenocytes harvested from successfully engrafted primary human ETP-ALL or T-ALL xenografts were injected into nonobese diabetic/severe combined immunodeficient (NOD.Cg-Prkdc^scid, also termed NOD/SCID) or NOD/SCID/Il2rg^tm1wjl/SzJ (NSG) mice[99]. Moreover, 1.5 × 10^6 cells splenocytes harvested from successfully engrafted patient-derived AML xenografts were injected into nonobese diabetic/severe immunodeficient (NOD.Cg-Rag1^tm1MomIl2rg^tm1wjl/SzJ, also termed NRG) mice expressing human IL-3, human GM-CSF and human SCF from the SGM3 triple transgene (NRGS)[100]. Engraftment into recipients was monitored by FACS analysis of peripheral blood as previously described. […] Both males and females were used. […] Kaplan–Meier survival and statistical analyses were performed using GraphPad Prism. 6.0 software (GraphPad Software, Inc.).
Spleen and sternum from recipients were collected, incubated at least 24 h in 3.7% neutral buffered formalin (pH 7.4), embedded in paraffin and sectioned at 8 μm onto Superforst-Plus slides. Samples were incubated with an anti-human CD45 antibody (Dako, #M0701) in Dako Autostainer Plus solution, then incubated with a sheep anti-mouse IgG conjugated to HRP and processed as per standard protocols using 3,3’ Diaminobenzidine staining (#ab64238, Abcam) for all immunoblots, as previously described. Samples were imaged and annotated using an Aperio ScanScope and software system (Leica Biosystems). […]

CCCCCCCCNC(=O)C(C#N)=Cc1cn(CCCN(C)C)c2ccccc12 [Dynole 34-2, 2-Cyano-N-octyl-3-(1-(3-dimethylaminopropyl)-1H-indol-3-yl)-acrylamide]
HES1 relative expression, MFI ([1]; ALL8): 4877 MFI and 4405 MFI | HES1 relative expression, FOLD ([1]; ALL8): 0.60 FOLD and 0.67 FOLD | HES1 relative expression, MFI ([1]; ALL16): 5772 MFI and 5666 MFI | HES1 relative expression, FOLD ([1]; ALL16): 0.83 FOLD and 0.85 FOLD | HES1 relative expression, MFI ([1]; ALL29): 5243 MFI and 5145 MFI | HES1 relative expression, FOLD ([1]; ALL29): 0.70 FOLD and 0.71 FOLD | HES1 relative expression, MFI ([1]; ALL31): 5977 MFI and 5691 MFI | HES1 relative expression, FOLD ([1]; ALL31): 0.71 FOLD and 0.74 FOLD | HES1 relative expression, MFI ([1]; ALL33): 6590 MFI and 6678 MFI | HES1 relative expression, FOLD ([1]; ALL33): 0.90 FOLD and 0.89 FOLD | HES1 relative expression, MFI ([1]; ETP1): 6721 MFI and 6600 MFI | HES1 relative expression, FOLD ([1]; ETP1): 0.88 FOLD and 0.90 FOLD | HES1 relative expression, MFI ([1]; ETP5): 7460 MFI and 7513 MFI | HES1 relative expression, FOLD ([1]; ETP5): 0.72 FOLD | HES1 relative expression, MFI ([1]; ETP8): 6107 MFI and 5672 MFI | HES1 relative expression, FOLD ([1]; ETP8): 0.72 FOLD and 0.78 FOLD | HES1 relative expression, MFI ([1]; ETP12): 6018 MFI and 5803 MFI | HES1 relative expression, FOLD ([1]; ETP12): 0.87 FOLD and 0.89 FOLD | HES1 relative expression, MFI ([1]; ETP13): 4629 MFI and 4445 MFI | HES1 relative expression, FOLD ([1]; ETP13): 0.69 FOLD and 0.72 FOLD | HES1 relative expression, MFI ([1]; ETP14): 4477 MFI and 4496 MFI | HES1 relative expression, FOLD ([1]; ETP14): 0.89 FOLD and 0.86 FOLD | HES1 protein levels ([1]; immature and mature subtypes of human T-ALL, result in words): significantly decreased | Hes1 (MFI) [2]: 18345 MFI and 12543 MFI and 14751 MFI and 12961 MFI | Notch1 (MFI) [2]: 16352 MFI and 11570 MFI and 16901 MFI and 11730 MFI | Absolute numbers human CD45+ cells ([3]; AML01-307, BM): 749000 and 744000 and 1060000 | Absolute numbers human CD45+ cells ([3]; AML01-307, Spleen): 5750000 and 6290000 and 9130000 | Proportion of hCD45+ (%) in peripheral blood ([3]; AML01-307, time 1 weeks): 0.7% and 0.2% and 0.4% and 0.1% | Proportion of hCD45+ (%) in peripheral blood ([3]; AML01-307, time 2 weeks): 0.7% and 1.2% and 3.7% and 1% and 1.9% and 0.8% | Proportion of hCD45+ (%) in peripheral blood ([3]; AML01-307, time 3 weeks): 2.8% and 3.7% and 3.9% and 4.4% and 5.1% and 2% and 1.3% | Proportion of hCD45+ (%) in peripheral blood ([3]; AML01-307, time 4 weeks): 5.1% and 5.66% and 9.2% and 9% and 8.38% and 2.7% and 2.566% and 4.8% | Proportion of hCD45+ (%) in peripheral blood ([3]; AML01-307, time 5 weeks): 5.6% and 7.7% and 4.3% and 6.7% and 5.2% and 3.11% and 3.44% and 4.93% | Proportion of hCD45+ (%) in peripheral blood ([3]; AML01-307, time 6 weeks): 17.22% | Proportion of hCD45+ (%) in peripheral blood ([3]; AML01-307, time 8 weeks): 18.86% and 22% and 33.26% and 20.57% and 30.66% and 22.85% | Proportion of hCD45+ (%) in peripheral blood ([3]; AML01-307, time 9 weeks): 36.6% and 52.3% and 29.5% and 40.0% | Absolute numbers human CD45+ cells ([3]; AML18, BM): 436000 and 427000 and 629000 and 665000 | Proportion of hCD45+ (%) in peripheral blood ([3]; AML18, time 1 weeks): 0.1% and 0.2% and 0.6% and 0.5% and 0.0% and 0.4% | Proportion of hCD45+ (%) in peripheral blood ([3]; AML18, time 4 weeks): 31.4% | Proportion of hCD45+ (%) in peripheral blood ([3]; AML18, time 7 weeks): 30.6% and 36.7% | Proportion of human CD45 (%) in peripheral blood ([3]; AML18 xenograft recipients): 2% and 5.6% and 2.4% and 1.6% and 4.8% and 5% and 2.26% and 2.3% | Spleen weight ([3]; PDX AML01-307): 0.115 g and 0.137 g and 0.108 g | Spleen weight ([3]; PDX AML18): 0.297 g and 0.287 g and 0.182 g and 0.316 g
